Data set [1] is described as follows: Chemical characteristics of Composition A′, concentrated and diluted forms. Format: physicochemical. How it is done: Several tests were conducted to determine the chemical characteristics of composition Composition A′, both in concentrated and diluted forms. […] All liquid nanodomain droplets range in size from 5 to 20 nm. The pH of both the concentrate and diluted formulations is between 6.0 and 7.5.

The conditions of data set [2]: rat, 120 mg/kg dose; cited from earlier work.
A further data set deals with CB2 receptors (Homo sapiens, UniProt P34972). To be noted: cited from earlier work.
The conditions of data set [3]: healthy volunteers and subjects with various medical conditions, 10 mg to 6000 mg, single and multiple doses; cited from earlier work.

CB2 receptors, sequence (P34972 whole entry): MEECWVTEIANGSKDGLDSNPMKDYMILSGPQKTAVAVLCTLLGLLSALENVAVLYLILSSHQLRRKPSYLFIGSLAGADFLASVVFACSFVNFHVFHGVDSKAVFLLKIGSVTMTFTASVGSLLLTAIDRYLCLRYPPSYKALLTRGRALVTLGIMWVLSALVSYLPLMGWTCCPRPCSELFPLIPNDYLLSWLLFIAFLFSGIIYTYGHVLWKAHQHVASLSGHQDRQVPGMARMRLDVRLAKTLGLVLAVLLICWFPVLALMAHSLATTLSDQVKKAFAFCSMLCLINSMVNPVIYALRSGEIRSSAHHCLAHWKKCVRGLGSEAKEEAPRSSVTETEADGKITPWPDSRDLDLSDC

For the molecule `C=C(C)[C@@H]1CCC(C)=C[C@H]1c1c(O)cc(CCCCC)cc1O` [CBD, 2-(1R,6R)-3-methyl-6-prop-1-en-2-ylcyclohex-2-en-1-yl-5-pentylbenzene-1,3-diol], the “Log P” value in data set [1] is listed as “about 6”. Further, in data set [1] (both concentrated and diluted forms), the “Association of CBD with formulation phases during storage” value is “remained associated with the surfactant and lipid phases”. In addition, the T1/2 in data set [2] was 4 to 5 h. The “Affinity for CB2 receptors” value on CB2 receptors is “low affinity”. Also, in data set [3], the Safety entry is on record as “safe”.

The values above are taken from patent publication US20240366633A1, “METHODS FOR TREATMENT OF OPIOID USE DISORDER WITH CANNABINOIDS” (ANANDA SCIENTIFIC, INC, priority 2021, published 2024).
